# In patent publication US10815264B2, “Nucleotides for the treatment of cancer” (IDENIX PHARMACEUTICALS LLC, priority 2015, dated 2020):
# Tested on: live leukemic cells of AML patient samples (bone marrow or peripheral blood)
# Test: Ex-vivo effect on AML patient samples, depletion of live leukemic cells by flow cytometry
# Assay type: cell-based, human
# Conditions: Homo sapiens, 48 h, plates incubated for 48 hours
# Procedure: Patient samples were obtained from a non-interventional and prospective study. The study included samples from adult patients over 18 years of age who were diagnosed with Acute Myeloid Leukemia (AML).
# In one embodiment, the method of data acquisition was performed as follows: on day 1 bone marrow (BM) or peripheral blood (PB) patient sample was received. A small part was separated from the rest of the sample for validation, while the majority of the sample was diluted with culture media and plated into 96-well plates previously prepared with the desired compounds and compound combinations, e.g., a compound or compound combination described herein. The number of live leukemic cells seeded in each well was fixed between 8000 and 32000, depending on the percentage of leukemic cells for each sample. […] Antibodies were added to identify leukemic cells using a gating strategy based on FSC/SSC and expression or lack of expression of different surface markers. The monoclonal antibodies selection was performed to optimize the identification of leukemic cell in each sample.
# In one embodiment, non-limiting examples of biomarkers such as the biomarkers CD34, CD45, CD117, and HLADR known as “backbone markers” for AML (van Dongen, J. J. and A. Orfao, EuroFlow: Resetting leukemia and lymphoma immunophenotyping. Basis for companion diagnostics and personalized medicine, Leukemia, 2012, 26, 1899-907) were included in the combination.
# In one embodiment, antibody combinations such as CD117/CD45, CD34/CD45, and HLADR/CD45 were used. Live leukemic cells were identified by their light scatter properties (FSC^int/hi/SSC^int) in the absence of Annexin-V-FITC staining. FSC/SSC selection was performed to exclude debris. The average percentage of cell viability upon receipt of the sample was 80% and samples were only processed if the viability was greater than 50%.
# In one embodiment, sample validation was performed as follows: BM and PB samples were extracted under sterile conditions and received in the laboratory within 24 hours of extraction. Initial analysis evaluated the number of pathological cells and their viability. Different volumes of sample (1 μL, 3 μL, 5 μL and 7 μL) were aliquoted in duplicate into a 96-well plate. To lyse red blood cells, 180 μL of ammonium chloride lysis solution was added to each well (2 g KHCO3, 16.58 g NH4Cl, 0.074 g Na2EDTA.2H2O, H2O to 1 L). Following a 10 min incubation period at 4° C., plate was centrifuged for 5 min at 1200 rpm and the supernatant removed. The lysis step was performed twice. To analyze, 20 μL of a combination of Annexin V-FITC (Immunostep, Salamanca, Spain), binding buffer (BB, 2.4 g HEPES, 8.19 g NaCl, 0.37 g Cl2Ca, H2O to 1 L), and the following monoclonal antibodies (mAb) were added to each well: CD117 (clone 104D2)-PE (Becton Dickinson, San Jose, Calif., US), CD34 (clone 581)-PerCP (BioLegend, San Diego, Calif., US), HLADR (clone L243)-PB (BioLegend) and CD45 (HI30)-PO (Life Technologies, Carlsbad, Calif., US) (van Dongen, J. J., et al., EuroFlow antibody panels for standardized n-dimensional flow cytometric immunophenotyping of normal, reactive and malignant leukocytes, Leukemia, 2012, 26, 1908-75). After 15 min of incubation at room temperature in the dark, a wash step was performed using binding buffer solution. The pellet was resuspended in 30 μL BB for analysis in Vivia's ExviTech© platform. Cell count and viability upon arrival were computed and the optimal volume of sample to use per well was determined.
# In one embodiment, the assay was performed according to following method: the whole sample was diluted with RPMI 1640, supplemented with 20% (v/v) FBS (Thermo Scientific, Waltham, Mass., US), 2% HEPES, 1% antibiotic (Zell Shield, Labclinics, Barcelona, Spain) and 1% L-glutamine 200 mM (Lonza, Hopkinton, Mass., US) to a final volume of 60 μL per well. […]
Compound,EC50 [µM],Emax [%]
"COC(=O)COP(=O)(N[C@@H](CC(C)C)C(=O)OC)OC[C@H]1S[C@@H](n2ccc(N)nc2=O)[C@@H](O)[C@@H]1O (single isomer, unassigned) [drawing 54]",1 to 10,0 to 10
"CC(C)OC(=O)[C@H](C)NP(=O)(OC[C@H]1S[C@@H](n2ccc(N)nc2=O)[C@@H](O)[C@@H]1O)Oc1ccccc1 (single isomer, unassigned) [drawing 47]",≥ 20,
Nc1ccn([C@@H]2S[C@H](COP(=O)(O)NCc3ccccc3)[C@@H](O)[C@@H]2O)c(=O)n1 [drawing 49],1 to 10,10 to 20
"CC(C)(C)SSCCOP(=O)(NCc1ccccc1)OC[C@H]1S[C@@H](n2ccc(N)nc2=O)[C@@H](O)[C@@H]1O (single isomer, unassigned) [drawing 57]",≥ 20,10 to 20
"Nc1ccn([C@@H]2S[C@H](COP(=O)(NCc3ccccc3)OCc3ccc([N+](=O)[O-])o3)[C@@H](O)[C@@H]2O)c(=O)n1 (single isomer, unassigned) [drawing 52]",,0 to 10
CC(=O)OC[C@H](C)NP1(=O)OC[C@H]2S[C@@H](n3ccc(N)nc3=O)[C@@H](O)C2O1 (stereo partly shown),≥ 20,> 20
"CCOC(=O)COP(=O)(N[C@@H](CC(C)C)C(=O)OCC)OC[C@H]1S[C@@H](n2ccc(N)nc2=O)[C@@H](O)[C@@H]1O (single isomer, unassigned) [drawing 51]",10 to 20,0 to 10

# Same assay, conditions: Homo sapiens, plates incubated for 48 hours
row,Compound,Emax [%]
1,"CC(C)OC(=O)[C@H](C)NP(=O)(OC[C@H]1S[C@@H](n2ccc(N)nc2=O)[C@@H](O)[C@@H]1O)Oc1ccccc1 (single isomer, unassigned) [drawing 47]",0 to 10

# Same assay, conditions: plates incubated for 48 hours
Compound,EC50 [µM],Emax (%)
"CC(C)(C)SSCCOP(=O)(NCc1ccccc1)OC[C@H]1S[C@@H](n2ccc(N)nc2=O)[C@@H](O)[C@@H]1O (single isomer, unassigned) [drawing 58]",≥ 20,C (C>20%)
"Nc1ccn([C@@H]2S[C@H](COP(=O)(NCc3ccccc3)OCc3ccc([N+](=O)[O-])o3)[C@@H](O)[C@@H]2O)c(=O)n1 (single isomer, unassigned) [drawing 53]",1 to 10,A (A=0-10%)
"CC(C)OC(=O)[C@H](C)NP(=O)(OC[C@H]1S[C@@H](n2ccc(N)nc2=O)[C@@H](O)[C@@H]1O)Oc1ccccc1 (single isomer, unassigned) [drawing 48]",10 to 20,A (A=0-10%)
"CCOC(=O)COP(=O)(N[C@@H](CC(C)C)C(=O)OCC)OC[C@H]1S[C@@H](n2ccc(N)nc2=O)[C@@H](O)[C@@H]1O (single isomer, unassigned) [drawing 50]",10 to 20,
"Nc1ccn([C@@H]2S[C@H](COP(=O)(NCc3ccccc3)OCc3ccc([N+](=O)[O-])o3)[C@@H](O)[C@@H]2O)c(=O)n1 (single isomer, unassigned) [drawing 52]",10 to 20,
"COC(=O)COP(=O)(N[C@@H](CC(C)C)C(=O)OC)OC[C@H]1S[C@@H](n2ccc(N)nc2=O)[C@@H](O)[C@@H]1O (single isomer, unassigned) [drawing 55]",1 to 10,
